Patent US4486594A, “Thiazolidine derivatives and production thereof” (Takeda Chemical Industries, Ltd., priority 1982, dated 1984)

How the values were obtained:
[1] = target: T1, partially purified aldose reductase preparation from human placenta (Homo sapiens, UniProt P15121); test: Aldose reductase inhibitory action; assay type: biochemical; details: 10^-6 M; human placenta enzyme
T1 construct: partially purified aldose reductase preparation from human placenta; from tissue; host or cells: human placenta
Method: Aldose reductase inhibitory action was assayed in accordance with the method disclosed by S. Haymen et al. in Journal of Biological Chemistry, Vol. 240, p. 877 (1965) and that disclosed by Jin H. Kinoshita et al. in Metabolism, Vol. 28, Nr. 4, Suppl. 1, 462 (1979). The enzyme used in the assay was a partially purified aldose reductase preparation from human placenta. The results for the respective compounds were expressed as % inhibition at the concentration of 10^-6 mole and are shown in Table 1.

[2] = system: Sorbitol accumulation in lens; test: Inhibition of sorbitol accumulation in the lens of streptozotocin-diabetic rats; assay type: in vivo, Sprague-Dawley rats; details: 25 mg/kg orally, twice a day for two days; relative to the control
Method: (§1) Sprague-Dawley rats (male, 5-7 week old, five rats/group) were fasted for 18 hours. The rats were made diabetic by an intravenous injection of 70 mg/kg of streptozotocin (Produced by Cal Biochem) at the site of the tail under ether anesthesia. After the administration of streptozotocin, these rats were administered orally with 25 mg/kg of the test compounds (5% suspension of gum-arabica) for two days twice a day (at 9.00 a.m. and at 4.00 p.m.). During this period, these rats were allowed free access to CE-2 feedstuff (Produced by Clea Japan) and water while determining blood-sugar level of each animal. On the morning of the third day, these rats were decapitated and bled, then the lens and sciatic nerve were quickly excised. The respective contents of sorbitol in the lens and sciatic nerve were determined by the enzymatic assay method described by R. S. Clements et al., in Science, 166, p. 1007 (1969) applied to the extracts of these organs obtained by the method described by M. J. Peterson et al., in Metabolism, 28, 456 (1979).
(§2) The results are shown in the Table below as % inhibition relative to the control. Incidentally, no significant difference in blood-sugar level was observed between the group of test animals to which the test compounds were administered and the control group of the test animals to which no test compounds were administered.

[3] = system: Sorbitol accumulation in sciatic nerve; test: Inhibition of sorbitol accumulation in the sciatic nerve of streptozotocin-diabetic rats; assay type: in vivo, Sprague-Dawley rats; details: 25 mg/kg orally, twice a day for two days; relative to the control
Method: as §1, §2

mice = test: Oral acute toxicity in mice; assay type: in vivo

Compound | inhibition at 1 µM [1] | Inhibition of Sorbitol Accumulation (%), Lens [2] | Inhibition of Sorbitol Accumulation (%), Sciatic Nerve [3] | oral LD50 (mice)
O=C1NC(=O)C(c2ccc3c(c2)CCCCC3)S1 (centres unmarked) [Example 1, 5-(6,7,8,9-tetrahydro-5H-benzocycloheptadien-2-yl)thiazolidine-2,4-dione] | 34% | 65% | 83% | –
Cc1ccc(C2SC(=O)NC2=O)cc1C (centres unmarked) [reference compound] | – | 18% | 5% | –
O=C1NC(=O)C(c2ccc3c(c2)CCC3)S1 (centres unmarked) [Example 4, 5-(5-indanyl)thiazolidine-2,4-dione] | 30% | 62% | 66% | –
COc1ccc(C2SC(=O)NC2=O)cc1OC (centres unmarked) [reference compound] | – | 62% | -2% | –
O=C1NC(=O)C(c2ccc3c(c2)CCCC3)S1 (centres unmarked) [Example 2, 5-(5,6,7,8-tetrahydro-2-naphthyl)thiazolidine-2,4-dione] | 36% | 73% | 79% | no less than 100 mg
